One assay deals with T1, ternary SpNatC (Schizosaccharomyces pombe, UniProt O74311+Q9USY3).
T1 sequence (O74311 1-150): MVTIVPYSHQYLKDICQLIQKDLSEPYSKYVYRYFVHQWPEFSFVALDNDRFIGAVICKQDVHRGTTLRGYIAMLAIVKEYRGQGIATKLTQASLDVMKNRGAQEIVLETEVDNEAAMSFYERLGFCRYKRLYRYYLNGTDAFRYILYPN
T1 sequence (Q9USY3 31-708): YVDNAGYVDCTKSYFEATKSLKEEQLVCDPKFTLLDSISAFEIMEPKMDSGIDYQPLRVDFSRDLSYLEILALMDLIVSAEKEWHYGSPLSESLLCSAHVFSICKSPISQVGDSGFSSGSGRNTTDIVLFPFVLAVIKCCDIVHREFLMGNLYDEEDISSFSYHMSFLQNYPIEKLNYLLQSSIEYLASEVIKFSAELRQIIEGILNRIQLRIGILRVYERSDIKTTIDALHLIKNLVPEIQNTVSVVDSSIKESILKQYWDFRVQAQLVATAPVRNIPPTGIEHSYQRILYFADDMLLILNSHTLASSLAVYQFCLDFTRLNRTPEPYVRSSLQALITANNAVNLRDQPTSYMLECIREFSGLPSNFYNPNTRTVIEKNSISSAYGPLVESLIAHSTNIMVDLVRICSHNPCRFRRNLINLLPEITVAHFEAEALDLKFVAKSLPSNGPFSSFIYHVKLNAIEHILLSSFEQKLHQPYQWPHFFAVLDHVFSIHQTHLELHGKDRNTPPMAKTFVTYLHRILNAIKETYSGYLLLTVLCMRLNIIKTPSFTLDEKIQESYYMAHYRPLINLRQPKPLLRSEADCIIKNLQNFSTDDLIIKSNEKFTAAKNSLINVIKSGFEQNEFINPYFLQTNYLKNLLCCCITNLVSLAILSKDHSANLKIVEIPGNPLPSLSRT
T1 sequence (O43080 4-72 partner limits assumed): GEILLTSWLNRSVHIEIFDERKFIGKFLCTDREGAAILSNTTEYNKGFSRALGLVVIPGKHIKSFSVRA
The assay can be described thus: isothermal titration calorimetry. The class given is binding. (In general: Isothermal titration calorimetry measures the heat released or taken up as one component is titrated into another.)

Another assay deals with T2, SpNatA (Schizosaccharomyces pombe, UniProt O74985+Q9UTI3).
T2 sequence (Q9UTI3 1-156): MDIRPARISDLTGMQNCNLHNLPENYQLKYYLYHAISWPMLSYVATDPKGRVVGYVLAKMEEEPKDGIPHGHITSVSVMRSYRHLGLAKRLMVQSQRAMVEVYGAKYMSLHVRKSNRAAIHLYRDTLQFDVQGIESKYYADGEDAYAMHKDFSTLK
T2 sequence (O74985 1-729): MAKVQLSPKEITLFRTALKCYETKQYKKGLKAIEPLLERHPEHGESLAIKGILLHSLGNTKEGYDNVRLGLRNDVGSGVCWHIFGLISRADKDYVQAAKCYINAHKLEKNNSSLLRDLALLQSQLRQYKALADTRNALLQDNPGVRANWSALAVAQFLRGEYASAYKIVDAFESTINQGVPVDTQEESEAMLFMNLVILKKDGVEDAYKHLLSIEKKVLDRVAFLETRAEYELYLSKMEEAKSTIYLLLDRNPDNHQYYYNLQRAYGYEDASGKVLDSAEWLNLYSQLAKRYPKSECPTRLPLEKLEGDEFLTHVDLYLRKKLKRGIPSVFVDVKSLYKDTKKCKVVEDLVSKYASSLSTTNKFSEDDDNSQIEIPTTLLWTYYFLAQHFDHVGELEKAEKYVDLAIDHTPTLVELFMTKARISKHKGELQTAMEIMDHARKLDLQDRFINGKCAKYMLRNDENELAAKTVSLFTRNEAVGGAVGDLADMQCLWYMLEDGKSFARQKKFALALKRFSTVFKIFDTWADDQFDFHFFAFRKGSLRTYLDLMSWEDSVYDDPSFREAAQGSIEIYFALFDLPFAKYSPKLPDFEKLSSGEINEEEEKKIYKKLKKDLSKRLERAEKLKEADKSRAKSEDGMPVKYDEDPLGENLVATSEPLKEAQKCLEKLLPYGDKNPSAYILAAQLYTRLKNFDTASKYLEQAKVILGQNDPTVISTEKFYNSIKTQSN
The assay can be described thus: […] acetyltransferase assay with and without IP6. The class given is biochemical. The note with it: 2 μM IP6, 50 μM Ac-CoA, 50 μM SASE peptide, pH 7.0, room temperature.

A further assay deals with hNatB (Homo sapiens, UniProt P61599). The assay can be described thus: […] acetyltransferase assay with and without IP6. The class given is biochemical. Conditions: 2 μM IP6, 50 μM Ac-CoA, 50 μM MDVF peptide, pH 7.0, room temperature.
Sequence of hNatB (P61599 1-163): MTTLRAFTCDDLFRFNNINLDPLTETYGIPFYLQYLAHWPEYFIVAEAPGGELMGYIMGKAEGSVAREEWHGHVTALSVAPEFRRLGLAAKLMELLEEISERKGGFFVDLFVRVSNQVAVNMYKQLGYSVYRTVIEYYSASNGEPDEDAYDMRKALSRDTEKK
Sequence of hNatB (Q14CX7 whole entry partner): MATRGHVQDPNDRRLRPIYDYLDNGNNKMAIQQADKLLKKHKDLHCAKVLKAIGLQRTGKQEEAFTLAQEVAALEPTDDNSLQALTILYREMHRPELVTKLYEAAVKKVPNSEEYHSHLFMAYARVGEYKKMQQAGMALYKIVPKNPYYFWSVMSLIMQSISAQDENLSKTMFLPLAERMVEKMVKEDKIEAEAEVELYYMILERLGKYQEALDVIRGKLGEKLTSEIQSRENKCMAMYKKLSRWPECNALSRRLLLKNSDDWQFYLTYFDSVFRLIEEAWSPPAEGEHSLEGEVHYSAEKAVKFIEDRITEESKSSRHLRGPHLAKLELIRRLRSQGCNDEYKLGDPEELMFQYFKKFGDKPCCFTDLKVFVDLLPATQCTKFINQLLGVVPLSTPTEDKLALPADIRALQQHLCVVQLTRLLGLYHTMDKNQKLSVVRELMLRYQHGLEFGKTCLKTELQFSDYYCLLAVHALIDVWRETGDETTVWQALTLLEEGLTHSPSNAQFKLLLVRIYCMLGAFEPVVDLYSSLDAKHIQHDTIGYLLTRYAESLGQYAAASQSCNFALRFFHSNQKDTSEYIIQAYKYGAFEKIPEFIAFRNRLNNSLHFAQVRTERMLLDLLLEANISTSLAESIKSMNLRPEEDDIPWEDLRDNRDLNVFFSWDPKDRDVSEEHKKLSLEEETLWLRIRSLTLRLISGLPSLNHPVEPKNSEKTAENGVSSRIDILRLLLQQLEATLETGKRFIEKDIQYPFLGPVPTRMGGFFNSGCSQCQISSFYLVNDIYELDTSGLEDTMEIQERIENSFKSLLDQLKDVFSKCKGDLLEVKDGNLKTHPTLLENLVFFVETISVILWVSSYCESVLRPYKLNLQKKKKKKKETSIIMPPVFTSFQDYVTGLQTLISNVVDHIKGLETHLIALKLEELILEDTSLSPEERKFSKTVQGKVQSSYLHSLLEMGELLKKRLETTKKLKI

Turning to `O=P(O)(O)O[C@H]1[C@H](OP(=O)(O)O)[C@@H](OP(=O)(O)O)[C@H](OP(=O)(O)O)[C@@H](OP(=O)(O)O)[C@H]1OP(=O)(O)O` [IP6, inositol hexaphosphate], the dissociation constant Kd (commonly the equilibrium constant for the complex coming apart) on ternary SpNatC was about 0.225 µM. The “modest inhibition at 2 μM” value was “produced a relatively modest inhibitory effect, as it also did for SpNatA and hNatB” at SpNatA; “produced a relatively modest inhibitory effect, as it also did for SpNatA and hNatB” at hNatB.

The values are drawn from PMC8500922 (Structure (London, England : 1993), 2021).
